According to ChEMBL document CHEMBL4049384, “Synthesis and evaluation of an injectable everolimus prodrug” (Bioorg Med Chem Lett, 2017):

Columns and labels:
Serum = experiment: Prodrug conversion in rat serum assessed as everolimus formation after 4 hrs by HPLC analysis; type: ADME, cell-free
Mus musculus [1] = experiment: Toxicity in nude mouse xenografted with human OS-RC2 cells assessed as body weight loss at 1.5 mg/kg administered three times a week intravenously and measured on Day 29 (reference value: 31.2 %); type: organism-based; settings: in vivo, iv
Mus musculus [2] = experiment: Toxicity in nude mouse xenografted with human OS-RC-2 cells assessed as death at 1.5 mg/kg, iv administered three times a week measured after 32 days; type: organism-based; settings: in vivo, 768 h
OS-RC-2 [3] = experiment: Antitumor activity against human OS-RC2 cells xenografted in nude mouse assessed as reduction in tumor volume at 1.5 mg/kg, iv administered three times a week measured on day 26 relative to control; type: functional
Mus musculus [4] = experiment: Toxicity in nude mouse xenografted with human OS-RC-2 cells assessed as body weight at 24 mg/kg, iv administered once weekly measured on day 1 (reference value: 20.4 +/- 0.33 g); type: organism-based; settings: in vivo
Mus musculus [5] = experiment: Toxicity in nude mouse xenografted with human OS-RC2 cells assessed as body weight loss at 24 mg/kg, iv administered once weekly measured on day 26 (reference value: 28.2 %); type: organism-based; settings: in vivo
OS-RC-2 [6] = experiment: Antitumor activity against human OS-RC2 cells xenografted in nude mouse assessed as reduction in tumor volume at 1.5 mg/kg, iv administered three times a week measured on day 29 relative to control; type: functional
Mus musculus [7] = experiment: Toxicity in nude mouse xenografted with human OS-RC-2 cells assessed as body weight loss at 24 mg/kg, iv administered once weekly measured after 32 days (reference value: 33%); type: organism-based; settings: in vivo, 768 h
Blood [8] = experiment: Prodrug conversion in Sprague-Dawley rat blood assessed as everolimus level at 2.724 mg/kg, iv at 6 hrs post dose by HPLC method; type: ADME, organism-based; settings: in vivo
OS-RC-2 [9] = experiment: Antitumor activity against human OS-RC2 cells xenografted in nude mouse assessed as reduction in tumor volume at 1.5 mg/kg, iv administered three times a week measured on day 12 relative to control; type: functional
Blood [10] = experiment: Prodrug conversion in Sprague-Dawley rat blood assessed as everolimus level at 2.724 mg/kg, iv at 0.25 hrs post dose by HPLC method; type: ADME, organism-based; settings: in vivo
MDA-MB-435 = experiment: Antiproliferative activity against human MDA-MB-435 cells after 48 hrs by MTT assay; type: functional, cell-based; settings: MDA-MB-435, 48 h
Blood [11] = experiment: Prodrug conversion in Sprague-Dawley rat blood assessed as everolimus level at 2.724 mg/kg, iv at 8 hrs post dose by HPLC method; type: ADME, organism-based; settings: in vivo
Mus musculus [12] = experiment: Toxicity in nude mouse xenografted with human OS-RC2 cells assessed as body weight loss at 1.5 mg/kg administered three times a week intravenously and measured on Day 12 (reference value: 15 %); type: organism-based; settings: in vivo, iv
Mus musculus [13] = experiment: Toxicity in nude mouse xenografted with human OS-RC2 cells assessed as body weight loss at 1.5 mg/kg administered three times a week intravenously and measured on Day 22 (reference value: 23.1 %); type: organism-based; settings: in vivo, iv
OS-RC-2 [14] = experiment: Antitumor activity against human OS-RC2 cells xenografted in nude mouse assessed as reduction in tumor volume at 24 mg/kg, iv administered once weekly measured on day 15 relative to control; type: functional
[15] = AUC (0 to t) in Sprague-Dawley rat at 2.724 mg/kg, iv; type: ADME, organism-based; settings: in vivo
OS-RC-2 [16] = experiment: Antitumor activity against human OS-RC2 cells xenografted in nude mouse assessed as reduction in tumor volume at 24 mg/kg, iv administered once weekly measured on day 32 relative to control; type: functional
Blood [17] = experiment: Prodrug conversion in Sprague-Dawley rat blood assessed as everolimus level at 2.724 mg/kg, iv at 4 hrs post dose by HPLC method; type: ADME, organism-based; settings: in vivo
[18] = Tmax in Sprague-Dawley rat at 2.724 mg/kg, iv; type: ADME, organism-based; settings: in vivo
Mus musculus [19] = experiment: Toxicity in nude mouse xenografted with human OS-RC2 cells assessed as body weight loss at 1.5 mg/kg administered three times a week intravenously and measured on Day 19 (reference value: 23.1 %); type: organism-based; settings: in vivo, iv
OS-RC-2 [20] = experiment: Antitumor activity against human OS-RC2 cells xenografted in nude mouse assessed as reduction in tumor volume at 24 mg/kg, iv administered once weekly measured on day 26 relative to control; type: functional
Blood [21] = experiment: Prodrug conversion in Sprague-Dawley rat blood assessed as everolimus level at 2.724 mg/kg, iv at 3 hrs post dose by HPLC method; type: ADME, organism-based; settings: in vivo
Mus musculus [22] = experiment: Toxicity in nude mouse xenografted with human OS-RC-2 cells assessed as body weight loss at 24 mg/kg, iv administered once weekly measured on day 5 (reference value: 1.9%); type: organism-based; settings: in vivo
OS-RC-2 [23] = experiment: Antitumor activity against human OS-RC2 cells xenografted in nude mouse assessed as reduction in tumor volume at 1.5 mg/kg, iv administered three times a week measured on day 5 relative to control; type: functional
Mus musculus [24] = experiment: Toxicity in nude mouse xenografted with human OS-RC2 cells assessed as body weight loss at 24 mg/kg, iv administered once weekly measured on day 29 (reference value: 31.2 %); type: organism-based; settings: in vivo
[25] = AUC (0 to infinity) in Sprague-Dawley rat at 2.724 mg/kg, iv; type: ADME, organism-based; design: dose 2.724 mg/kg, route intravenous, time infinity; settings: in vivo
Mus musculus [26] = experiment: Toxicity in nude mouse xenografted with human OS-RC2 cells assessed as body weight loss at 24 mg/kg, iv administered once weekly measured on day 12 (reference value: 15 %); type: organism-based; settings: in vivo
[27] = Prodrug conversion in phosphate buffered saline at pH 7.4 assessed as everolimus formation
Mus musculus [28] = experiment: Toxicity in nude mouse xenografted with human OS-RC2 cells assessed as body weight loss at 1.5 mg/kg administered three times a week intravenously and measured on Day 8 (reference value: 8.5 %); type: organism-based; settings: in vivo, iv
OS-RC-2 [29] = experiment: Antitumor activity against human OS-RC2 cells xenografted in nude mouse assessed as reduction in tumor volume at 24 mg/kg, iv administered once weekly measured on day 5 relative to control; type: functional
Mus musculus [30] = experiment: Toxicity in nude mouse xenografted with human OS-RC2 cells assessed as body weight loss at 1.5 mg/kg, iv administered three times a week measured on Day 15 (reference value: 20.2 %); type: organism-based; settings: in vivo
OS-RC-2 [31] = experiment: Antitumor activity against human OS-RC2 cells xenografted in nude mouse assessed as reduction in tumor volume at 1.5 mg/kg, iv administered three times a week measured on day 19 relative to control; type: functional
Mus musculus [32] = experiment: Toxicity in nude mouse xenografted with human OS-RC2 cells assessed as body weight loss at 1.5 mg/kg administered three times a week intravenously and measured on Day 5 (reference value: 1.9 %); type: organism-based; settings: in vivo, iv

Q: For `CO[C@H]1C[C@@H]2CC[C@@H](C)[C@@](O)(O2)C(=O)C(=O)N2CCCC[C@H]2C(=O)O[C@H]([C@H](C)C[C@@H]2CC[C@@H](OCCOC(=O)CSC[C@H](NC(=O)CC[C@H](N)C(=O)O)C(=O)NCC(=O)O)[C@H](OC)C2)CC(=O)[C@H](C)/C=C(\C)[C@@H](O)[C@@H](OC)C(=O)[C@H](C)C[C@H](C)\C=C/C=C/C=C/1C`, which Drug metabolism (Serum) is on record?
A: Metabolite_Detected

Q: What about the Activity (Mus musculus [1]) of the same compound?
A: 11.5%

Q: What about the Activity (Mus musculus [2]) of the same compound?
A: Non-Toxic

Q: And the T/C (OS-RC-2 [3])?
A: 0.52%

Q: And the Activity (Mus musculus [4])?
A: 21.28 g

Q: And the Activity (Mus musculus [5])?
A: 10.2%

Q: And the T/C (OS-RC-2 [6])?
A: 0.54%

Q: And the Activity (Mus musculus [7])?
A: 10.7%

Q: And the Drug metabolism (Blood [8])?
A: 8.113 ng/mL

Q: What about the T/C (OS-RC-2 [9]) of the same compound?
A: 0.6%

Q: What about the Drug metabolism (Blood [10]) of the same compound?
A: 1995.0467 ng/mL

Q: What about the IC50 (MDA-MB-435) of the same compound?
A: 55.3 µM

Q: What about the Drug metabolism (Blood [11]) of the same compound?
A: 6.8915 ng/mL

Q: And the Activity (Mus musculus [12])?
A: 9.5%

Q: And the Activity (Mus musculus [13])?
A: 11.5%

Q: What about the T/C (OS-RC-2 [14]) of the same compound?
A: 0.41%

Q: What about the AUC(0-t) [15] of the same compound?
A: 2490 ng·h/mL

Q: And the T/C (OS-RC-2 [16])?
A: 0.53%

Q: What about the Drug metabolism (Blood [17]) of the same compound?
A: 13.8243 ng/mL

Q: And the Tmax [18]?
A: 4.98 min

Q: What about the Activity (Mus musculus [19]) of the same compound?
A: 11.5%

Q: What about the T/C (OS-RC-2 [20]) of the same compound?
A: 0.55%

Q: What about the Drug metabolism (Blood [21]) of the same compound?
A: 16.9443 ng/mL

Q: What about the Activity (Mus musculus [22]) of the same compound?
A: 6.2%

Q: What about the T/C (OS-RC-2 [23]) of the same compound?
A: 0.72%

Q: And the Activity (Mus musculus [24])?
A: 10.5%

Q: And the AUC(0-inf) [25]?
A: 2510 ng·h/mL

Q: What about the Activity (Mus musculus [26]) of the same compound?
A: 6.3%

Q: And the Drug metabolism [27]?
A: Metabolite not detected

Q: And the Activity (Mus musculus [28])?
A: 9.2%

Q: And the T/C (OS-RC-2 [29])?
A: 0.55%

Q: What about the Activity (Mus musculus [30]) of the same compound?
A: 12%

Q: And the T/C (OS-RC-2 [31])?
A: 0.57%

Q: What about the Activity (Mus musculus [32]) of the same compound?
A: 6.8%
